Like-named read-outs stand apart in the source and are kept apart here.
How the values were obtained:
[1] = test system: isolation-induced aggressive behaviour; experiment: Isolation-induced aggressive behaviour test; format: in vivo, male NMRI mice; conditions: Mus musculus, sc, read-out: ED50, isolation induced aggressive behaviour
Source text: Male mice subjected to prolonged isolation develop aggressive behaviour against each other when paired (Yen, C. Y. et al., Arch. Int. Pharmacodyn. 123, 179, (1959); Valzelli, L., Adv. Pharmacol. 5, 79 (1967)). […] The clinical correlation of this test indicates tranquillizing and anxiolytic activities as well as antiaggressive properties as such (Duncan, R. L. et al., J. Med. Chem. 13, 1 (1970)).
This type of aggression is interesting because it is known that this kind of emotional behaviour might be located in limbic structures in the brain (MacLean, P. D., Psychosom. Med. 11, 338 (1949)).
Every week male NMRI mice, weighing 20-22 g, were isolated in Makrolon cages for three weeks with diet and water ad libitum. A piece of cardboard was placed between the cages to prevent visual contact.
To test aggressiveness the mice were paired in a neutral area, a beaker (14 cm high and diameter 14 cm). A pair is considered aggressive if both the animals show clear signs of fighting within 5 min. This fighting is characterized by biting and vocalization. As soon as fighting is seen, the mice are separated and brought to their home cage. […] Animals showing no aggression are discarded. […] The test substance is administered s.c. (0.2-0.4 ml/20 g). The mice are paired 0.5 h after the injection for trials of 5 min. duration.
The ED50 -value (mg/kg) reported is the dose inhibiting aggressive behaviour among 50 percent of the pairs 0.5 hour after drug administration.

[2] = test system: conditioned avoidance response; experiment: Conditioned avoidance response (CAR), shuttle box; format: in vivo, female rats; conditions: Rattus norvegicus, sc
Procedure: The effect of the test compounds on CAR was evaluated in a shuttle box, manufactured by Ugo Basile, Italy. The female rats, weighing 150 g, were trained to avoid an electric shock (unconditioned stimulus--US) by escaping from one compartment to the other when the light from a 15 W lamp switched on (conditions stimulus--CS). When they responded to the CS, a conditioned response (CR) was considered to have been elicited.
Rats showing a stable CR of more than 80% after a three weeks' training program were used in the experiments. Groups of six rats were subcutaneously administered with various doses of the test compounds. 11/2 and 4 hours after the administration each rat was placed in the experimental box and the effect on CR was evaluated.
The mechanisms regulating conditioned responses are very complex. Both catecholaminergic and hormonal factors are of importance. [drawing 13]

[3] = test system: isolation-induced aggressive behaviour; conditions: background statement on clinically used drugs; cited from earlier work
[4] = 0.5 h after administration, dose inhibiting aggressive behaviour among 50 percent of the pairs
[5] = 1.5 hr after administration, dose inhibiting CR in 50% of the animals, read-out: ED50, conditioned avoidance behaviour, 1.5 hr
[6] = 4 hr after administration, dose inhibiting CR in 50% of the animals, read-out: ED50, conditioned avoidance behaviour, 4 hr

SMILES	ED50 [1, 4] [mg/kg]	ED50 [2, 5] [mg/kg]	ED50 [2, 6] [mg/kg]	other results
CN(C)CCC=C1c2ccccc2CCc2ccccc21 [Amitriptyline]	5			
CN(C)CCCN1c2ccccc2Sc2ccc(Cl)cc21 [Chlorpromazine]				ED50 ([1]; 0.5 h): 1.4 mg/kg; ED50 ([2]; 1.5 h, read-out: ED50, conditioned avoidance behaviour, 1.5 hr): 3.5 mg/kg; ED50 ([2]; 4 h, read-out: ED50, conditioned avoidance behaviour, 4 hr): 5.2 mg/kg
CN1C(=O)CN=C(c2ccccc2)c2cc(Cl)ccc21 [Diazepam]				activity on isolation-induced aggressive behaviour (in words) [3]: active on this kind of aggressive behaviour
COC(=O)N1CCN(CCCC(c2ccc(F)cc2)c2ccc(F)cc2)CC1.Cl [I (a), 1-Carbomethoxy-4-[4,4-bis(p-fluorophenyl)butyl]piperazine hydrochloride]	6	45	12	
CSc1ccc2c(c1)N(CCC1CCCCN1C)c1ccccc1S2 (centres unmarked) [Thioridazine]	5	41	40	

From patent US4624953A, “1-piperazinocarboxylates and pharmaceutical compositions containing them” (priority 1981, dated 1986)
